Values of other authors as cited in patent US20080200527A1, “Cannabinoid Receptor Modulators” (Carex SA, priority 2005, published 2008).

Test system: absorption of dietary fat
Conditions: in vivo

SMILES: CCCCCCCCCCC[C@@H](C[C@@H]1OC(=O)[C@H]1CCCCCC)OC(=O)[C@H](CC(C)C)NC=O [orlistat]
- block of the absorption of dietary fat: up to 30%
